The target of experiment [1] is T1, Ectonucleotide pyrophosphatase/phosphodiesterase family member 1 (Homo sapiens) (UniProt P22413).
T1 sequence (whole entry): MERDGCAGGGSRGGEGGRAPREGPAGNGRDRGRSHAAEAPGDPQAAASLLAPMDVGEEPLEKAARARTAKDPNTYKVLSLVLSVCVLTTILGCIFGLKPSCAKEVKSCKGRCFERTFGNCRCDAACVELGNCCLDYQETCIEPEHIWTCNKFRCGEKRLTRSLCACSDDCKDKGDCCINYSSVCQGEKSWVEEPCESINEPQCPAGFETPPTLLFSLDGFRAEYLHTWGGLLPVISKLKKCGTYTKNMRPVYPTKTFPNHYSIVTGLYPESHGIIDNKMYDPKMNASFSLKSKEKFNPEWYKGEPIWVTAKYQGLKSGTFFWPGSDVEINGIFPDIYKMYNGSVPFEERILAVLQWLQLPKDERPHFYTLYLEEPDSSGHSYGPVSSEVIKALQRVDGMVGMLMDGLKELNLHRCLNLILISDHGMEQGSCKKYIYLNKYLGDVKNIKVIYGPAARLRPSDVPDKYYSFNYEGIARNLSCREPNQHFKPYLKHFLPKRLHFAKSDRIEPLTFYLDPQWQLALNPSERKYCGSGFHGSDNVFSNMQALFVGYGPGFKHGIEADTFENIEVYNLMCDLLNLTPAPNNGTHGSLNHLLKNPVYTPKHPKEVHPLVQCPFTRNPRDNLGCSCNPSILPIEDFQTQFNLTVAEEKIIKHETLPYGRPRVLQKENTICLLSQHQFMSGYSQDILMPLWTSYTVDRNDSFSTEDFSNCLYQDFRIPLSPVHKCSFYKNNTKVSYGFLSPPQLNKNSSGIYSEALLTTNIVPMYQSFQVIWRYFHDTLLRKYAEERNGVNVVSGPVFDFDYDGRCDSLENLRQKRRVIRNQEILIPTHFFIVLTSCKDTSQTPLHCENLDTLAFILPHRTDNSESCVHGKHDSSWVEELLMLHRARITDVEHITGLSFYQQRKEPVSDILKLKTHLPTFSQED
Put plainly: Inhibition of human GFP-fused NPP1 expressed in COS7 cells at 1 uM using pnp-TMP as substrate after 60 mins relative to control. It counts as cell-based.

In experiment [2] the target is T2, Ectonucleotide pyrophosphatase/phosphodiesterase family member 1 (Homo sapiens, UniProt P22413).
T2 sequence (P22413 whole entry): T1 sequence (whole entry)
Put plainly: Inhibition of human GFP-fused NPP1 expressed in COS7 cells using pnp-TMP as substrate after 60 mins. It counts as cell-based.

The structures appear in SMILES notation.

With `CCCOc1cc2c(Cl)ncnc2cc1OC`, in experiment [1], the inhibition (usually the relative decrease from the control value, in per cent) was found to be 29%. Also, the affinity in experiment [2], expressed as Ki, was 3240 nM.

Regarding `COc1cc2ncnc(N3CCC(CO)CC3)c2cc1OC`, in experiment [1], the inhibition worked out at 11%.

With `COc1cc2ncnc(N3CCC(CCN)CC3)c2cc1OC`, the inhibition in experiment [1] was determined as 45%. Also, the Ki (as a rule, the dissociation constant of the complex between target and ligand, obtained from inhibition or displacement) in experiment [2] is 699 nM.

`COc1cc2nc(CC3OC(=O)c4ccccc43)nc(N3CCC(CCNS(N)(=O)=O)CC3)c2cc1OC` (stereo not given) yielded an inhibition in experiment [1] of 79%. In experiment [2], this compound gave a Ki of 90 nM.

The compound `COc1cc2nc(/C=C/c3cccc(F)c3)nc(N3CCC(CCNS(N)(=O)=O)CC3)c2cc1OC` had an inhibition in experiment [1] of 14%. Moreover, the Ki in experiment [2] stood at 3580 nM.

In experiment [1], `CCCCOc1cc2c(Cl)ncnc2cc1OC` registered an inhibition of under 1%.

In the case of `COc1cc2nc(/C=C/c3cccnc3)nc(N3CCC(CCNS(N)(=O)=O)CC3)c2cc1OC`, the inhibition in experiment [1] came to 86%. This compound registered an inhibition constant (Ki) in experiment [2] of 58 nM.

With `COc1cc2nc(/C=C/c3ccc(F)cc3)nc(N3CCC(CCNS(N)(=O)=O)CC3)c2cc1OC`, the inhibition in experiment [1] was 70%. This compound also displayed an inhibition constant Ki in experiment [2] of 465 nM.

In the case of `COc1cc2nc(CCc3ccc(F)cc3)nc(N3CCC(CCNS(N)(=O)=O)CC3)c2cc1OC`, in experiment [1], the inhibition was 69%. Besides, the Ki in experiment [2] was 366 nM.

In experiment [1], `COC(=O)c1ccc(/C=C/c2nc(N3CCC(CCNS(N)(=O)=O)CC3)c3cc(OC)c(OC)cc3n2)cc1` showed an inhibition of 43%. In addition, the Ki in experiment [2] was found to be 1340 nM.

For the compound `COc1ccc2ncnc(N3CCC(CCNS(N)(=O)=O)CC3)c2c1`, the inhibition in experiment [1] was 71%. The compound also came in with a Ki in experiment [2] of 242 nM.

In experiment [1], `COc1cccc(/C=C/c2nc(N3CCC(CCNS(N)(=O)=O)CC3)c3cc(OC)c(OC)cc3n2)c1` came in with an inhibition of 88%. Also, the inhibitory constant (Ki) in experiment [2] was 101 nM.

In experiment [1], `COc1cc2ncnc(Cl)c2cc1OC/C=C/S(F)(F)(F)(F)F` had an inhibition of 15%. In addition, in experiment [2], the inhibition constant Ki came to 7970 nM.

As for `COc1cc2ncnc(N3CCC(CCNS(C)(=O)=O)CC3)c2cc1OC`, the inhibition in experiment [1] came to 12%.

As for `CCOC(=O)C1CCN(c2ncnc3cc(OC)c(OC)cc23)CC1`, the inhibition in experiment [1] amounted to 12%.

Regarding `COc1ccccc1/C=C/c1nc(N2CCC(CCNS(N)(=O)=O)CC2)c2cc(OC)c(OC)cc2n1`, the inhibition in experiment [1] turned out to be 74%. The Ki in experiment [2] was 302 nM.

In experiment [1], `COc1cc2nc(/C=C/c3ccncc3)nc(N3CCC(CCNS(N)(=O)=O)CC3)c2cc1OC` had an inhibition of 79%. Also, in experiment [2], the inhibition constant (Ki) came to 218 nM.

On to `COC(=O)c1cccc(/C=C/c2nc(N3CCC(CCNS(N)(=O)=O)CC3)c3cc(OC)c(OC)cc3n2)c1`, for which, in experiment [1], the inhibition amounted to 74%. The compound further gave a Ki in experiment [2] of 297 nM.

`COc1cc2ncnc(N3CCC(CC#N)CC3)c2cc1OC` showed an inhibition in experiment [1] of under 1%.

Take `COc1cc2nc(/C=C/c3ccccc3)nc(N3CCC(CCNS(N)(=O)=O)CC3)c2cc1OC`: in experiment [1], the inhibition was 33%. This compound displayed a Ki in experiment [2] of 1840 nM.

`COc1cc2ncnc(N3CCC(CCNC(C)=O)CC3)c2cc1OC` displayed an inhibition in experiment [1] of 9%.

In experiment [1], `COc1cc2nc(/C=C/c3ccccn3)nc(N3CCC(CCNS(N)(=O)=O)CC3)c2cc1OC` returned an inhibition of 85%. For the same compound, the Ki in experiment [2] came out at 71 nM.

Compound `COc1cc2nc(/C=C/c3ccccc3F)nc(N3CCC(CCNS(N)(=O)=O)CC3)c2cc1OC` displayed an inhibition in experiment [1] of 78%. Also, the affinity in experiment [2], expressed as Ki, was 211 nM.

As for `COc1ccc(/C=C/c2nc(N3CCC(CCNS(N)(=O)=O)CC3)c3cc(OC)c(OC)cc3n2)cc1`, in experiment [1], the inhibition amounted to 66%. For the same compound, the inhibition constant (Ki) in experiment [2] was found to be 231 nM.

`CCOc1cc2c(Cl)ncnc2cc1OC`: in experiment [1], the inhibition came to 48%. The compound further came in with a Ki in experiment [2] of 1310 nM.

The compound `COc1cc2ncnc(N3CCC(CCNS(N)(=O)=O)CC3)c2cc1OC` registered an inhibition in experiment [1] of 87%.

Values taken from ChEMBL document CHEMBL4145537, “Synthesis and biological evaluation of novel quinazoline-4-piperidinesulfamide derivatives as inhibitors of NPP1” (Eur J Med Chem, 2018).
